The text below walks through data of patent US6855730B2, “3-methylidenyl-2-indolinone modulators of protein kinase” (Sugen, Inc., priority 1998, dated 2005).

pIC50: −log10 of the molar value. Bounds are passed on as bounds.

One assay deals with A431 cells. The assay is described as follows: A431 growth assay (2% FBS). Format: cell-based. As to conditions: Homo sapiens, A-431, read-out: A431 growth (2% FBS) IC50.
For the next assay, the target named is EGFR (Homo sapiens, UniProt P00533). The assay is described as follows: Biochemical EGFR assay (ELISA, A431 cell lysate). The arrangement: A431 cell lysate (Screening Lab, SUGEN, Inc.); host or cells: A431. To be noted: read-out: bio EGFr IC50. In outline:
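EGFR captured from A431 cell lysate onto anti-EGFR-coated plates, then incubated with test compound for 30 min at room temperature. Tyrosine phosphorylation with ATP/MnCl2 was stopped with EDTA after 5 min and detected by anti-phosphotyrosine ELISA with peroxidase/ABTS read-out.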
In general terms: ELISA stands for enzyme-linked immunosorbent assay.

Sequence of EGFR (P00533 25-1210): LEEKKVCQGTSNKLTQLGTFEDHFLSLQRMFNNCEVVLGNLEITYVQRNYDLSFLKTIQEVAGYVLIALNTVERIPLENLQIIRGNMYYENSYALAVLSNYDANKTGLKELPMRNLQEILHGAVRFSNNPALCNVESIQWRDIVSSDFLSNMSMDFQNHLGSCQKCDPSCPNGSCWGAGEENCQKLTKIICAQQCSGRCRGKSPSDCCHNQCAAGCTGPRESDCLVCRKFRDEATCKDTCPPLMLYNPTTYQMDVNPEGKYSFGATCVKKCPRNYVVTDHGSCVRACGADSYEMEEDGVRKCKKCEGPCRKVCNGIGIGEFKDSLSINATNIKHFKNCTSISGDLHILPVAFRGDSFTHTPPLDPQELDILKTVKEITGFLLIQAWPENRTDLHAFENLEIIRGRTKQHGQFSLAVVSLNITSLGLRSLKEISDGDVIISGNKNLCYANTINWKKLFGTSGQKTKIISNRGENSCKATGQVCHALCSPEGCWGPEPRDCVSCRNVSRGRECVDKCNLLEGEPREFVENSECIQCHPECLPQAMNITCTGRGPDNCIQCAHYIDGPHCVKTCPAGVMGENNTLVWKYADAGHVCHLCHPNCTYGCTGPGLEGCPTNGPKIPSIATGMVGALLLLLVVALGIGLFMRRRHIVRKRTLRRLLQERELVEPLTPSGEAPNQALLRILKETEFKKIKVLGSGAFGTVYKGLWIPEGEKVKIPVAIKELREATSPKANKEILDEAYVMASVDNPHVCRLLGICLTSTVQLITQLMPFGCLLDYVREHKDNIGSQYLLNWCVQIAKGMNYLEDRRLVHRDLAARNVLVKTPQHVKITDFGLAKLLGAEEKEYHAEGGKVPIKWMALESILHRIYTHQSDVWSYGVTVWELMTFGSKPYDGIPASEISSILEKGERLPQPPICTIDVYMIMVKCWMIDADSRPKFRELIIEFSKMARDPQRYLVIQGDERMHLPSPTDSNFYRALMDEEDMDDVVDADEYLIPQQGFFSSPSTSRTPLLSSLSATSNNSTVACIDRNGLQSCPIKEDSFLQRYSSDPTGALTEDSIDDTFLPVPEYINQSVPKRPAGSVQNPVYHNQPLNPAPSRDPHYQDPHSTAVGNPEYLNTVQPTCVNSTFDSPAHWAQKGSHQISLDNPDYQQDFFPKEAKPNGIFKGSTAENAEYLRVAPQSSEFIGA

In the case of `CC(=O)Nc1ccc2c(c1)NC(=O)/C2=C/c1ccc(OCCN2CCOCC2)c(-c2cccs2)c1` [Example 40, N-{3-[4-(2-Morpholin-4-ylethoxy)-3-thiophen-2-ylbenzylidene]-2-oxo-2,3-dihydro-1H-indol-6-yl}-acetamide], the negative-log IC50 (pIC50) with A431 cells is 4.85; at EGFR, under 4.00.

On to `COc1cc(/C=C2/C(=O)Nc3ccccc32)c(-c2cccs2)cc1OC` [Example 39, 3-(4,5-Dimethoxy-2-thiophen-2-ylbenzylidene)-1,3-dihydroindol-2-one], for which the pIC50 in the assay on A431 cells is 5.04; on EGFR, under 4.00.

With `CC1(C)CCc2cc(/C=C3/C(=O)Nc4ccc(F)cc43)ccc2O1` [Example 23, 3-(2,2-Dimethylchroman-6-ylmethylene)-5-fluoro-1,3-dihydroindol-2-one], the pIC50 with A431 cells was 4.84; on EGFR, under 4.00.

As to `COc1ccc(/C=C2/C(=O)Nc3cc(NC(C)=O)ccc32)cc1-c1cccs1` [Example 31, N-[3-(4-Methoxy-3-thiophen-2-ylbenzylidene)-2-oxo-2,3-dihydro-1H-indol-6-yl]-acetamide], the pIC50 is 6.52 in the assay on A431 cells and under 4.00 at EGFR.

`COc1ccc(/C=C2/C(=O)Nc3ncccc32)cc1C1CCCC1` [Example 47, 3-(3-Cyclopentyl-4-methoxybenzylidene)-1,3-dihydropyrrolo[2,3-b]pyridin-2-one]: the pIC50 with A431 cells is 4.39; at EGFR, 4.43.

Regarding `COc1ccc(/C=C2/C(=O)Nc3ccc(Br)cc32)cc1-c1ccccc1` [Example 13, 5-Bromo-3-(6-methoxybiphenyl-3-ylmethylene)-1,3-dihydroindol-2-one], the pIC50 is 5.05 with A431 cells and under 4.00 at EGFR.

Broadly, the pIC50 is −log10 of the IC50, conventionally taken in molar units.
